# Measured values: PubChem BioAssay (NCI)
#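 Test compounds were applied to cells in 96-well plates for 48 hours at 5 doses. Definition used: TGI = concentration required for complete inhibition of growth.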
# Tested on: IGROV1 ovarian
# Assay: growth of human tumour cells (NCI), 48 h
row,Structure (SMILES),TGI
1,CN1CCN(C(=O)CCNC(=O)Cc2ccc(C(=O)c3ccccc3)cc2)CC1,> 100 µM
2,COc1cc(OC)c(-c2ccc(OCc3ccccc3)c3c(OC)cc(C)cc23)c2c1C(C)=N[C@H](C)C2,3.57 µM
3,COc1ccc(N2C(=O)C(=O)N(c3ccccc3[N+](=O)[O-])C2=S)cc1,> 100 µM
4,O=C(O)CC1NC(/C(=C/c2ccccc2)NC(=O)c2ccccc2)OC1=O (stereo not drawn),> 100 µM
5,Nc1c2c(nc3cc(F)c(F)cc13)CCC2,> 100 µM
6,CC(C)(Br)C(Br)CCC1(C2CO2)CO1 (stereo not drawn),> 5 µM
7,CCCn1c2ccccc2c2ccc3c(c21)C(=O)C=CC3=O,> 10 µM
8,CC1(c2cccs2)CC(c2cccs2)=C(C#N)C(=C(C#N)C#N)N1 (stereo not drawn),33.4 µM
9,O=C1C2CC=CCC2C(=O)N1n1c(Cc2ccc(Cl)cc2)n[nH]c1=O (stereo not drawn),> 100 µM
10,CCN(CC)CCC(=O)/C=C/c1ccccc1,35.5 µM
11,Oc1c(C2=NNC(c3ccc(Cl)cc3Cl)C2)ccc2ccccc12 (stereo not drawn),> 100 µM

# Tested on: UACC-62 melanoma
# Assay: growth of human tumour cells (NCI), 48 h
row,Structure (SMILES),TGI
1,OC1[C@@H]2[C@@H](O)[C@H](O)[C@@H](O)N2C[C@@H]1O (stereo partly drawn),> 100 µM
2,C=C1C(=O)C[C@H]2C(=C)C(=O)O[C@@H]2C2C1CC[C@@]2(C)O (stereo partly drawn),31.2 µM
3,COC(=O)C1=C(C)NC2=C(C(=O)c3ccccc32)C1c1cn(-c2ccccc2)nc1-c1ccccc1 (stereo not drawn),> 100 µM
4,OCC1OC(c2cccc3cc(O)c(O)cc23)CC1O (stereo not drawn),> 100 µM
5,CC(C)(Cl)C(Br)CCC(C)(Cl)C(Br)CBr (stereo not drawn),> 100 µM
6,O=C(NCC(=O)N1CCCC1C(=O)OC(=O)C1CCCN1C(=O)CNC(=O)OCc1ccccc1)OCc1ccccc1 (stereo not drawn),34.6 µM
7,CN(Cc1cnc2nc(N)nc(N)c2n1)c1ccc(C(=O)NC(CCC(=O)NCCC(P(=O)(O)O)P(=O)(O)O)C(=O)O)cc1 (stereo not drawn),> 100 µM
8,O=C1NC(NNc2ccccc2)=N/C1=C\c1ccccc1O,> 100 µM
9,C[N+](CCCl)(CCCl)Cc1cccc2cccc([N+](=O)[O-])c12,> 100 µM
10,Cc1c([N+](=O)[O-])ccc2c(NCCCN(C)C)ccnc12,39.4 µM
11,Cc1cc(C)nc(NC(=O)c2ccc(Br)s2)c1,> 100 µM
12,N#Cc1nc2ccccc2nc1N1CCN(c2ccc([N+](=O)[O-])cc2)CC1,> 100 µM
13,CN1CCN(C(=O)CCNC(=O)Cc2ccc(C(=O)c3ccccc3)cc2)CC1,> 100 µM
14,COc1cc(OC)c(-c2ccc(OCc3ccccc3)c3c(OC)cc(C)cc23)c2c1C(C)=N[C@H](C)C2,3.84 µM
15,COc1ccc(N2C(=O)C(=O)N(c3ccccc3[N+](=O)[O-])C2=S)cc1,32.5 µM
16,O=C(O)CC1NC(/C(=C/c2ccccc2)NC(=O)c2ccccc2)OC1=O (stereo not drawn),57.9 µM
17,Nc1c2c(nc3cc(F)c(F)cc13)CCC2,> 100 µM
18,COc1ccccc1/C(=N\OCCC(=O)O)c1cccs1,> 100 µM
19,CCCn1c2ccccc2c2ccc3c(c21)C(=O)C=CC3=O,> 10 µM
20,CC1(c2cccs2)CC(c2cccs2)=C(C#N)C(=C(C#N)C#N)N1 (stereo not drawn),29.6 µM
21,O=C1C2CC=CCC2C(=O)N1n1c(Cc2ccc(Cl)cc2)n[nH]c1=O (stereo not drawn),> 100 µM
22,Oc1c(C2=NNC(c3ccc(Cl)cc3Cl)C2)ccc2ccccc12 (stereo not drawn),> 100 µM

# Tested on: A498 renal
# Assay: growth of human tumour cells (NCI), 48 h
row,Structure (SMILES),TGI
1,OC1[C@@H]2[C@@H](O)[C@H](O)[C@@H](O)N2C[C@@H]1O (stereo partly drawn),> 100 µM
2,C=C1C(=O)C[C@H]2C(=C)C(=O)O[C@@H]2C2C1CC[C@@]2(C)O (stereo partly drawn),> 100 µM
3,COC(=O)C1=C(C)NC2=C(C(=O)c3ccccc32)C1c1cn(-c2ccccc2)nc1-c1ccccc1 (stereo not drawn),> 100 µM
4,OCC1OC(c2cccc3cc(O)c(O)cc23)CC1O (stereo not drawn),> 100 µM
5,CC(C)(Cl)C(Br)CCC(C)(Cl)C(Br)CBr (stereo not drawn),49.6 µM
6,O=C(NCC(=O)N1CCCC1C(=O)OC(=O)C1CCCN1C(=O)CNC(=O)OCc1ccccc1)OCc1ccccc1 (stereo not drawn),> 100 µM
7,CN(Cc1cnc2nc(N)nc(N)c2n1)c1ccc(C(=O)NC(CCC(=O)NCCC(P(=O)(O)O)P(=O)(O)O)C(=O)O)cc1 (stereo not drawn),> 100 µM
8,O=C1NC(NNc2ccccc2)=N/C1=C\c1ccccc1O,> 100 µM
9,C[N+](CCCl)(CCCl)Cc1cccc2cccc([N+](=O)[O-])c12,> 100 µM
10,O=C1NC(=O)C(c2c[nH]c3ccccc23)=C1c1cnc[nH]1,> 100 µM
11,Cc1c([N+](=O)[O-])ccc2c(NCCCN(C)C)ccnc12,82.7 µM
12,Cc1cc(C)nc(NC(=O)c2ccc(Br)s2)c1,> 100 µM
13,N#Cc1nc2ccccc2nc1N1CCN(c2ccc([N+](=O)[O-])cc2)CC1,> 100 µM
14,CN1CCN(C(=O)CCNC(=O)Cc2ccc(C(=O)c3ccccc3)cc2)CC1,> 100 µM
15,COc1cc(OC)c(-c2ccc(OCc3ccccc3)c3c(OC)cc(C)cc23)c2c1C(C)=N[C@H](C)C2,3.93 µM
16,COc1ccc(N2C(=O)C(=O)N(c3ccccc3[N+](=O)[O-])C2=S)cc1,77.5 µM
17,O=C(O)CC1NC(/C(=C/c2ccccc2)NC(=O)c2ccccc2)OC1=O (stereo not drawn),> 100 µM
18,Nc1c2c(nc3cc(F)c(F)cc13)CCC2,61.2 µM
19,COc1ccccc1/C(=N\OCCC(=O)O)c1cccs1,> 100 µM
20,CC(C)(Br)C(Br)CCC1(C2CO2)CO1 (stereo not drawn),> 5 µM
21,CCCn1c2ccccc2c2ccc3c(c21)C(=O)C=CC3=O,> 10 µM
22,CC1(c2cccs2)CC(c2cccs2)=C(C#N)C(=C(C#N)C#N)N1 (stereo not drawn),35.8 µM
23,O=C1C2CC=CCC2C(=O)N1n1c(Cc2ccc(Cl)cc2)n[nH]c1=O (stereo not drawn),> 100 µM
24,CCN(CC)CCC(=O)/C=C/c1ccccc1,> 60.6 µM
25,Oc1c(C2=NNC(c3ccc(Cl)cc3Cl)C2)ccc2ccccc12 (stereo not drawn),> 100 µM
